Assay [1] relates to SNU-638. The assay is described as follows: Cell viability / antiproliferative assay (WST-8), SNU-638. Type of assay: cell-based, human. Conditions: read-out: SNU-638 IC50.
Procedure: (§2) c-MET overexpressing human gastric cancer cell lines [MKN45] and [SNU638] were cultured in RPMI medium with 10% fetal bovine serum, penicillin (100U/ml), and streptomycin (100mg/ml), and c-MET exon 14 skipping mutant human gastric cancer cell lines [Hs746T] were cultured in DMEM media. The c-MET overexpressing human lung cancer cell line EBC-1 was cultured in MEM media with the addition of 10% fetal bovine serum, penicillin (100U/ml), and streptomycin (100mg/ml). […] The compound synthesized in accordance with the present invention was prepared with a raw material solution of 10 mM dissolved in DMSO (dimethyl sulfoxide), and was sequentially diluted and processed.
(§3) In order to observe the inhibitory activity on cell growth, cells were dispensed in a 96-well plate at a concentration of 5,000 cells/well, and then treated with the compound prepared at various concentrations for 72 hours. The viability of the cells was calculated using GraphicPad Prism 8.0 software by adding 10 ml per well of WST-8 (water soluble tetrazolium salt) sample, which reacts with dehydrogenase present in the electron transport system of mitochondria to produce formazon, incubated for 2 hours, and measured absorbance at 450 nm.
The target of assay [2] is T1, c-MET (Homo sapiens, UniProt P08581). The assay is described as follows: c-MET protein degradation (Simple Western), SNU-638. In kind it is cell-based. Details: assess the resolution of the compound of the present invention for c-MET expressed in cells; endogenous in cells; host or cells: SNU638 (human gastric cancer). Conditions: c-MET overexpressing gastric cancer cell line SNU-638, treated 24 hours. The protocol:
(§1) In order to assess the resolution of the compound of the present invention for c-MET expressed in cells, cells were dispensed in a 12-well plate at a concentration of 2 × 10^5 cells/well, and then gastric cancer cell lines were treated with samples for 24 hours and lung cancer cell lines were treated for 48 hours. Cell lysates were collected using a scraper on ice, centrifuged at 4°C15,000 rpm for 30 min to obtain a protein-containing supernatant. Protein expression was then measured using the Simple Western Automated Western Blot System Abby instrument using 3 µg of protein for each sample. SDS and heat-induced denaturation proteins were separated by molecular weight, attached to capillary, reacted with anti-c-MET or anti-GAPDH antibodies, which are primary antibodies, and then reacted with HRP-conjugated secondary antibodies, and analyzed the protein expression signal with compass software. Protein expression was normalized based on the expression value of GAPDH, and protein development in each sample was measured as a percentage (%) based on 100% of samples treated with 0.1% DMSO carriers, and DC50 (concentration of a compound where 50% protein inhibition is achieved) was calculated from the change in protein expression amount due to compound treatment.

In assay [3] the target is T1, c-MET. The assay is described as follows: c-MET protein degradation (Simple Western), EBC-1. Also noted: assess the resolution of the compound of the present invention for c-MET expressed in cells; endogenous in cells; host or cells: EBC-1 (human lung cancer). Conditions: c-MET overexpressing lung cancer cell line EBC-1, treated 48 hours; Table 2. Type of assay: cell-based. The protocol: as §1

For assay [4], the system named is EBC-1. The assay is described as follows: Cell viability / antiproliferative assay (WST-8), EBC-1. In kind it is cell-based, human. Conditions: read-out: EBC-1 IC50. Background: Tetrazolium dyes change colour on reduction, which living cells bring about.
Procedure: as §2, §3
Assay [5] deals with MKN-45. The assay is described as follows: Cell viability / antiproliferative assay (WST-8), MKN-45.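 For all read-outs here: MKN-45 is a human gastric cancer line overexpressing c-MET, growth inhibition read as WST-8 formazan absorbance at 450 nm after 2 h dye incubation.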 Conditions: for IC50: Homo sapiens, MKN-45, 72 h, read-out: MKN-45 IC50.
Assay [6] deals with T1, c-MET. The assay is described as follows: c-MET protein degradation (Simple Western), MKN-45. Type of assay: cell-based. Details: assess the resolution of the compound of the present invention for c-MET expressed in cells; endogenous in cells; host or cells: MKN45 (human gastric cancer). Conditions: c-MET overexpressing gastric cancer cell line MKN-45, treated 24 hours; Table 2. Summed up: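 c-MET level, GAPDH-normalized and relative to 0.1% DMSO-treated cells, measured by automated capillary Western (3 µg protein) after compound exposure of 48 h for lung or 24 h for gastric cancer lines; DC50 = concentration giving 50% reduction.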

The mark [7] stands for this setting: Homo sapiens, SNU-638 cells, 72 hours, WST-8, Table 2.
Where [8] appears, read: Homo sapiens, EBC-1 cells, 72 hours, WST-8, Table 2.

Usually IC50 stands for the concentration that gives 50% inhibition. By DC50 is commonly meant the midpoint of the concentration-degradation curve. Lower therefore signals a more potent degrader.

Like-named read-outs stand apart in the source and are kept apart here. A value given as a limit tells only on which side of the number the result lay.

T1 sequence (P08581 25-1390): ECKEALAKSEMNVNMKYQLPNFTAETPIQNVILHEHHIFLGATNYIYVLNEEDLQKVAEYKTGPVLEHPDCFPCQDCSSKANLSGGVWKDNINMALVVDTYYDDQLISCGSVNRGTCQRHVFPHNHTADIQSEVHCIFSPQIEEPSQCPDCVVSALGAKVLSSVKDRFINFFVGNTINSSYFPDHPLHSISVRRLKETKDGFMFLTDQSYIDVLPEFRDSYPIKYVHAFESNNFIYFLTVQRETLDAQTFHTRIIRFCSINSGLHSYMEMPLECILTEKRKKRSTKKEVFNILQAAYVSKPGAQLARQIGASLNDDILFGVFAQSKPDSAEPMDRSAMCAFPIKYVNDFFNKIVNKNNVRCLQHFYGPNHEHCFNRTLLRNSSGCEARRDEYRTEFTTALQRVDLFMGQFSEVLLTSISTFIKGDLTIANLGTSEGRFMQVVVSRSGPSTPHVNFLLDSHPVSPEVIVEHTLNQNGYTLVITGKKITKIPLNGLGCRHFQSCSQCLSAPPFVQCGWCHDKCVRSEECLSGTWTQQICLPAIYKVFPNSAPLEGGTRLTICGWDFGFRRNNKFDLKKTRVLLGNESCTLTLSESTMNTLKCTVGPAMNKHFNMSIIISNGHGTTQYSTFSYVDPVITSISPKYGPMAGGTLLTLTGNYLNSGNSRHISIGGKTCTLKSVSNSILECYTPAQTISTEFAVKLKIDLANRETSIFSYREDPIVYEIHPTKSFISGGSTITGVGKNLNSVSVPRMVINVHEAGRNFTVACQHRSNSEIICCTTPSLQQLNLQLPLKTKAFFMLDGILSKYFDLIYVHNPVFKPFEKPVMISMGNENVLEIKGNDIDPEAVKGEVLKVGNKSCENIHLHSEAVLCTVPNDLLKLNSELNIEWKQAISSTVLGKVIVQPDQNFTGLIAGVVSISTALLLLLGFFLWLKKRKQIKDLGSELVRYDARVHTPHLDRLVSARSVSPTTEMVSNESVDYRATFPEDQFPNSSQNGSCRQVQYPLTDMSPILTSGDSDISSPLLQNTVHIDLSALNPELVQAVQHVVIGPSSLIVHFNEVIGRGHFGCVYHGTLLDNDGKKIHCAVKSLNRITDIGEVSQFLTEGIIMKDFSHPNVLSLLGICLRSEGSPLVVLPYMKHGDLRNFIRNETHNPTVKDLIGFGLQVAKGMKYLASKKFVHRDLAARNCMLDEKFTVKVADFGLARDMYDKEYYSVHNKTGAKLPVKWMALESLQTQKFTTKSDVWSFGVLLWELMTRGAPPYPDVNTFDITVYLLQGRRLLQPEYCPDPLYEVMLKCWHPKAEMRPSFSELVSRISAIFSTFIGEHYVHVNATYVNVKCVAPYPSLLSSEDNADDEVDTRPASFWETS

Take `Cc1nn(C2CCC(=O)NC2=O)c(=O)c2cc(N3CCN(CC4CCN(CCN5CCC(COc6cnc(-c7cccc(Cn8nc(-c9cccc(C#N)c9)ccc8=O)c7)nc6)CC5)CC4)CC3)c(F)cc12` (stereo not drawn) [ICT-0001326]: the IC50 in assay [1] (Homo sapiens, SNU-638, 72 h) is 100 to 1000 nM. Also, in assay [2] (Table 2), the DC50 was more than 1000 nM.

`N#Cc1cccc(-c2ccc(=O)n(Cc3cccc(-c4ncc(OCC5CCN(CC(=O)N6CCN(CC7CCN(c8ccc(NC9CCC(=O)NC9=O)cc8F)CC7)CC6)CC5)cn4)c3)n2)c1` (stereo not drawn) [ICT-0001468, 3-(1-{[3-(5-{[1-(2-{4-[(1-{4-[(2,6-dioxopiperidin-3-yl)amino]-2-fluorophenyl}piperidine-4-yl)methyl]piperazine-1-yl}-2-oxoethyl)piperidine-4-yl]methoxy}pyrimidine-2-yl)phenyl]methyl}-6-oxo-1,6-dihydropyridazine-3-yl)benzonitrile]: the DC50 in assay [3] was less than 100 nM; in assay [2] (Table 2) it was 100 to 1000 nM. The IC50 in assay [1] (setting [7]) and in assay [4] (setting [8]) was less than 100 nM in each case.

Consider `N#Cc1cccc(-c2ccc(=O)n(Cc3cccc(-c4ncc(OCC5CCN(CC(=O)N6CCC(CN7CCN(c8ccc(NC9CCC(=O)NC9=O)cc8F)CC7)CC6)CC5)cn4)c3)n2)c1` (stereo not drawn) [ICT-0001447, 3-(1-{[3-(5-{[1-(2-{4-[(4-{4-[(2,6-dioxopiperidin-3-yl)amino]-2-fluorophenyl}piperazine-1-yl)methyl]piperidine-1-yl}-2-oxoethyl)piperidine-4-yl]methoxy}pyrimidine-2-yl)phenyl]methyl}-6-oxo-1,6-dihydropyridazine-3-yl)benzonitrile], for which the DC50 in assay [3] was less than 100 nM; in assay [2] (Table 2), 100 to 1000 nM. In addition, the IC50 in assay [1] (setting [7]) and in assay [4] (setting [8]) was less than 100 nM each time.

For `Cc1nn(C2CCC(=O)NC2=O)c(=O)c2ccc(N3CCN(C4CN(CCN5CCC(COc6cnc(-c7cccc(Cn8nc(-c9cccc(C#N)c9)ccc8=O)c7)nc6)CC5)C4)CC3)cc12` (stereo not drawn) [ICT-0001325], the half-inhibitory concentration (IC50) in assay [1] (Homo sapiens, SNU-638, 72 h) was less than 100 nM. In addition, the DC50 in assay [2] (Table 2) is more than 1000 nM.

As for `Cn1cc(-c2cnc3c(nnn3C[C@@H]3CN(c4ncc(-c5ccc(CN6CCN(CC(=O)N7CCN(c8ccc(NC9CCC(=O)NC9=O)cc8F)CC7)CC6)cc5)cn4)CCO3)n2)cn1` (stereo partly drawn) [ICT-0001379], the IC50 in assay [1] (SNU-638 cells, 72 hours, WST-8, Table 1) is less than 100 nM; in assay [4] (EBC-1 cells, 72 hours, WST-8, Table 1), less than 100 nM. For the same compound, the DC50 in assay [2] (Table 1) is less than 100 nM.

`Cc1nn(C2CCC(=O)NC2=O)c(=O)c2cc(N3CCN(CCN4CCC(COc5cnc(-c6cccc(Cn7nc(-c8cccc(C#N)c8)ccc7=O)c6)nc5)CC4)CC3)ccc12` (stereo not drawn) [ICT-0001278, 3-(1-{[3-(5-{[1-(2-{4-[3-(2,6-dioxopiperidin-3-yl)-1-methyl-4-oxo-3,4-dihydropthalazine-6-yl]piperazine-1-yl}ethyl)piperidine-4-day]methoxy}pyrimidine-2-yl)phenyl]methyl}6-oxo-1,6-dihydropyridazine-3-yl)benzonitrile]: the IC50 in assay [5] is less than 100 nM. The same compound returned a DC50 in assay [3] of more than 1000 nM.

Compound `N#Cc1cccc(-c2ccc(=O)n(Cc3cccc(-c4ncc(-c5cccc(CN6CCC(CN7CCN(c8ccc(NC9CCC(=O)NC9=O)cc8F)CC7)CC6)c5)cn4)c3)n2)c1` (stereo not drawn) [ICT-0001450] registered a DC50 in assay [3] of less than 100 nM. In addition, the IC50 was less than 100 nM in assay [1] (Homo sapiens, SNU-638, 72 h) and less than 100 nM in assay [4] (Homo sapiens, EBC-1, 72 h).

As for `N#Cc1cccc(-c2ccc(=O)n(Cc3cccc(-c4ncc(OCC5CCN(CC(=O)N6CC(N7CCN(c8ccc9c(=O)n(C%10CCC(=O)NC%10=O)ncc9c8)CC7)C6)CC5)cn4)c3)n2)c1` (stereo not drawn) [ICT-0001232], the IC50 is less than 100 nM in assay [5] and less than 100 nM in assay [4] (Homo sapiens, EBC-1, 72 h). Moreover, the DC50 in assay [6], in assay [3] and in assay [2] (Table 2) was less than 100 nM each time.

In the case of `Cc1nn(C2CCC(=O)NC2=O)c(=O)c2cc(N3CCN(c4ccc(NCC(=O)N5CCC(COc6cnc(-c7cccc(Cn8nc(-c9cccc(C#N)c9)ccc8=O)c7)nc6)CC5)cc4)CC3)ccc12` (stereo not drawn) [ICT-0001262, 3-(1-(3-(5-((1-((4-(4-(3-(2,6-dioxopiperidin-3-yl)-1-methyl-4-oxo-3,4-dihydropthalazine-6-yl)piperazine-1-yl)phenyl)glycy)piperidine-4-il)methoxy)pyrimidine-2-yl)benzyl)6-oxo-1,6-dihydropyridazine-3-yl)benzonitrile], the IC50 was less than 100 nM in assay [5] and less than 100 nM in assay [4] (Homo sapiens, EBC-1, 72 h). The compound also came in with a DC50 in assay [6] of less than 100 nM.

With `Cc1nn(C2CCC(=O)NC2=O)c(=O)c2ccc(N3CCN(C(=O)C4CCN(CC(=O)N5CCC(COc6cnc(-c7cccc(Cn8nc(-c9cccc(C#N)c9)ccc8=O)c7)nc6)CC5)CC4)CC3)cc12` (stereo not drawn) [ICT-0001218], the IC50 in assay [5] is less than 100 nM; in assay [1] (Homo sapiens, SNU-638, 72 h), less than 100 nM. Moreover, the DC50 in assay [6] and in assay [2] (Table 2) was less than 100 nM each time.

Regarding `Cc1nn(C2CCC(=O)NC2=O)c(=O)c2c(NCC(=O)N3CCC(CN4CCC(COc5cnc(-c6cccc(Cn7nc(-c8cccc(C#N)c8)ccc7=O)c6)nc5)CC4)CC3)cccc12` (stereo not drawn) [ICT-0000980], the IC50 in assay [5] is less than 100 nM; in assay [1] (Homo sapiens, SNU-638, 72 h), 100 to 1000 nM. In addition, the DC50 in assay [6] is less than 100 nM; in assay [2] (Table 2), more than 1000 nM.

As for `Cn1cc(-c2cnc3c(nnn3C[C@@H]3CN(c4ncc(-c5ccc(CN6CCN(c7ccc(NC8CCC(=O)NC8=O)cc7F)CC6)cc5)cn4)CCO3)n2)cn1` (stereo partly drawn) [ICT-0001403, 3-((3-fluoro-4-(4-(4-(2-((S)-2-((5-(1-methyl-1H-pyrazole-4-yl)-1H-[1,2,3]triazolo[4,5-b]pyrazine-1-yl)methyl)morpholino)pyrimidine-5-yl)benzyl)piperazine-1-yl)phenyl)amino)piperidine-2,6-dione], the IC50 in assay [1] (Homo sapiens, SNU-638 cells, 72 hours, WST-8, Table 1) is less than 100 nM; in assay [4] (Homo sapiens, EBC-1 cells, 72 hours, WST-8, Table 1), less than 100 nM.

For `N#Cc1cccc(-c2ccc(=O)n(Cc3cccc(-c4ncc(OCC5CCN(C(=O)CN6CCN(c7ccc8c(=O)n(C9CCC(=O)NC9=O)ncc8c7)CC6)CC5)cn4)c3)n2)c1` (stereo not drawn) [ICT-0000979, 3-(1-{[3-(5-{[1-(2-{4-[2-(2,6-dioxopiperidine-3-yl)-1-oxo-1,2-dihydrophthalazine-6-yl]piperazine-1-day}acetyl)piperidine-4-yl]methoxy}pyrimidine-2-yl)phenyl]methyl}-6-oxo-1,6-dihydropyridazine-3-yl)benzonitrile], the “MKN-45 IC50” value in assay [5] (MKN-45 cells, 72 hours, WST-8, Table 2) is recorded as “A”. Further, the DC50 in assay [6] is less than 100 nM; in assay [2] (Table 2), 100 to 1000 nM. The IC50 in assay [1] (Homo sapiens, SNU-638, 72 h) was in the range of 100 to 1000 nM.

For the compound `N#Cc1cccc(-c2ccc(=O)n(Cc3cccc(-c4ncc(OCC5CCN(CCN6CCN(c7ccc8c(=O)n(C9CCC(=O)NC9=O)ncc8c7)CC6)CC5)cn4)c3)n2)c1` (stereo not drawn) [ICT-0001276, 3-(1-{[3-(5-{[1-(2-{4-[2-(2,6-dioxopiperidin-3-yl)-1-oxo-1,2-dihydropetalazine-6-yl]piperazine-1-il}ethyl)piperidine-4-il]methoxy}pyrimidine-2-yl)phenyl]methyl}-6-oxo-1,6-dihydropyridazine-3-yl)benzonitrile], the IC50 in assay [5] was less than 100 nM; in assay [1] (Homo sapiens, SNU-638, 72 h), less than 100 nM. Besides, the DC50 in assay [6] was less than 100 nM; in assay [3], more than 1000 nM.

`N#Cc1cccc(-c2ccc(=O)n(Cc3ccc(-c4ncc(OCC5CCN(CCCC#Cc6cccc7c(=O)n(C8CCC(=O)NC8=O)ncc67)CC5)cn4)cc3)n2)c1` (stereo not drawn) [ICT-0001303]: the IC50 in assay [1] (SNU-638 cells, 72 hours, WST-8, Table 2) is less than 100 nM. For the same compound, the DC50 in assay [2] (Table 2) lay within 100 to 1000 nM.

As for `Cc1nn(C2CCC(=O)NC2=O)c(=O)c2ccc(N3CCN(C(=O)C4CN(CC(=O)N5CCC(COc6cnc(-c7cccc(Cn8nc(-c9cccc(C#N)c9)ccc8=O)c7)nc6)CC5)C4)CC3)cc12` (stereo not drawn) [ICT-0001257], the half-inhibitory concentration (IC50) was less than 100 nM in assay [5] and less than 100 nM in assay [4] (Homo sapiens, EBC-1, 72 h). The compound also yielded a DC50 in assay [6] of less than 100 nM.

The values above are taken from EP4624466A1, “DEGRADER FOR DECOMPOSING CMET PROTEIN, AND PHARMACEUTICAL COMPOSITION COMPRISING SAME” (Innocure Therapeutics, Inc., priority 2022, dated 2024).
